Patent US12448395B2 (BRISTOL-MYERS SQUIBB COMPANY, priority 2019, dated 2025)
pIC50: −log10 of the molar value.

Experiments:
TLR7 = target: T1, TLR7 (Mus musculus, UniProt P58681); assay: In vivo mouse TLR7 PD model (gardiquimod-induced plasma IL-6 and IFN-alpha); conditions: C57BL/6 mice, 90 min after gardiquimod
T1 sequence (P58681 27-1050): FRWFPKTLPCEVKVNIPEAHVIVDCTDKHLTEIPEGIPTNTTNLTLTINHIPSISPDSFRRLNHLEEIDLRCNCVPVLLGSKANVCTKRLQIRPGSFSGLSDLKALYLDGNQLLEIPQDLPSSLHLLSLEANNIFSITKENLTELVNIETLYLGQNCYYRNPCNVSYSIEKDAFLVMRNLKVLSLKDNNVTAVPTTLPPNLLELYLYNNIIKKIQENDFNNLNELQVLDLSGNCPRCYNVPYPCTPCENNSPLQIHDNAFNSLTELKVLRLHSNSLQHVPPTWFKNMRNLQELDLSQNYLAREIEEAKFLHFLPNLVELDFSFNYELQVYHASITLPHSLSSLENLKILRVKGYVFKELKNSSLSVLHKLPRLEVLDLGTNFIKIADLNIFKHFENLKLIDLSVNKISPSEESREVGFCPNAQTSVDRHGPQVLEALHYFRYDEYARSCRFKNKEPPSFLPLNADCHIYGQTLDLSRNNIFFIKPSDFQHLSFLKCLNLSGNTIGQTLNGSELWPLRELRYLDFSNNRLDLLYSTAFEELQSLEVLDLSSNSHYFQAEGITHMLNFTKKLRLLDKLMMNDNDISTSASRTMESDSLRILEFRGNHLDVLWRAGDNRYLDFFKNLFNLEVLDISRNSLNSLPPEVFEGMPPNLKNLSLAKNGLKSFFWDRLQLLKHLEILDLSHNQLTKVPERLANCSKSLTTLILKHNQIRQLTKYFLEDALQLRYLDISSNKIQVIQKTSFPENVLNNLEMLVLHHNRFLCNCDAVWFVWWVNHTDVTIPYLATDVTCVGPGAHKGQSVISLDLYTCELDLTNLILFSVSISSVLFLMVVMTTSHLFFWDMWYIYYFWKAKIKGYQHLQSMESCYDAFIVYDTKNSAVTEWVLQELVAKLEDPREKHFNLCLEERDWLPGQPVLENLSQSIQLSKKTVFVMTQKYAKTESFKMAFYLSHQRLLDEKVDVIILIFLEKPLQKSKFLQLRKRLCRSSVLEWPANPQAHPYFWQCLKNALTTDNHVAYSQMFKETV
Description: In Vivo Mouse TLR7 PD Model:
Adult male C57BL/6 mice were used for the experiments. Mice (7 to 10 per group) were randomized into different treatment groups based on body weight. Mice from the respective treatment groups were administered orally with vehicle or test compound. Thirty min after the oral administration of vehicle or test compound, mice were challenged with intraperitoneal injection of gardiquimod for TLR7 PD model. Ninety minutes after gardiquimod injection, mice were bled under isoflurane anaesthesia and plasma IL-6 and IFN-alpha levels were estimated by using commercially available ELISA kit (BD Biosciences, PBL Life Sciences). At the end of experiment, mean cytokine data was plotted and one way ANOVA with Dunnett's test was performed to calculate the significance of test compound treated group vs. vehicle control group. Percent inhibition of cytokine induction was calculated for test compound treated group vs vehicle control group.

human TLR7 = target: T2, human TLR7 (Homo sapiens, UniProt Q9NYK1); assay: TLR7 inhibition reporter assay (HEK-Blue SEAP, gardiquimod stimulation); assay type: cell-based; conditions: HEK-Blue cells overexpressing human TLR7, gardiquimod 7.5 μM
T2 sequence (Q9NYK1 27-1049): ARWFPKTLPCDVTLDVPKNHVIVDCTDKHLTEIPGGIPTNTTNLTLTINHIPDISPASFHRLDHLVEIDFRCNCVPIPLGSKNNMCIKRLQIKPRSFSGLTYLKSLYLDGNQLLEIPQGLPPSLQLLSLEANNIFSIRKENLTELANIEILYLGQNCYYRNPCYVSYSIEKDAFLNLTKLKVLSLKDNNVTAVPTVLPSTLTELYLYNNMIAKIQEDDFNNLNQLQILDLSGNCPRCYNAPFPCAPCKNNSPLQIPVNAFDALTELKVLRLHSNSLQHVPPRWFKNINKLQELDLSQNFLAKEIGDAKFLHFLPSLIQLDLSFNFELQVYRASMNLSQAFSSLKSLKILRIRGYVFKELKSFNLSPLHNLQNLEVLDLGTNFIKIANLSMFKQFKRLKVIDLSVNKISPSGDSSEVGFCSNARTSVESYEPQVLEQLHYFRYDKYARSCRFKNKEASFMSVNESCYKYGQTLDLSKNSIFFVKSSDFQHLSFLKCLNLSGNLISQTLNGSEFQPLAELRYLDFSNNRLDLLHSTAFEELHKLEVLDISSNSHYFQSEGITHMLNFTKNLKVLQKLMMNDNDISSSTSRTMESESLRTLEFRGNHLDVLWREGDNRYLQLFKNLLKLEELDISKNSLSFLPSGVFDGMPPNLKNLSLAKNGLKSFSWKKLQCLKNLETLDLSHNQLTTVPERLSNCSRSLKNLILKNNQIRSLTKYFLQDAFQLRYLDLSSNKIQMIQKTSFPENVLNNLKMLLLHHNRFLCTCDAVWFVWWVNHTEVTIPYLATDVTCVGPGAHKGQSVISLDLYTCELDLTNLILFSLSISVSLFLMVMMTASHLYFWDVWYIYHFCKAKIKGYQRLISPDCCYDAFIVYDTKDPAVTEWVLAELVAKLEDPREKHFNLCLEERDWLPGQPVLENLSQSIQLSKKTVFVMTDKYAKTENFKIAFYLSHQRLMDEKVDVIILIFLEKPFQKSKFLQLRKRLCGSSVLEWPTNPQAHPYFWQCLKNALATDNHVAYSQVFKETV
Description: (§1) TLR7/8/9 Inhibition Reporter Assays
(§2) HEK-Blue™-cells (Invivogen) overexpressing human TLR7, TLR8 or TLR9 receptors were used for screening inhibitors of these receptors using an inducible SEAP (secreted embryonic alkaline phosphatase) reporter gene under the control of the IFN-β minimal promoter fused to five NF-κB and AP-1-binding sites. Briefly, cells are seeded into Greiner 384 well plates (15000 cells per well for TLR7, 20,000 for TLR8 and 25,000 for TLR9) and then treated with test compounds in DMSO to yield a final dose response concentration range of 0.05 nM-50 μM. After a 30 minute compound pre-treatment at room temperature, the cells are then stimulated with a TLR7 ligand (gardiquimod at a final concentration of 7.5 μM), TLR8 ligand (R848 at a final concentration of 15.9 μM) or TLR9 ligand (ODN2006 at a final concentration of 5 nM) to activate NF-κB and AP-1 which induce the production of SEAP. After a 22 hour incubation at 37° C., 5% CO2, SEAP levels are determined with the addition of HEK-Blue™ Detection reagent (Invivogen), a cell culture medium that allows for detection of SEAP, according to manufacturer's specifications. The percent inhibition is determined as the % reduction in the HEK-Blue signal present in wells treated with agonist plus DMSO alone compared to wells treated with a known inhibitor.

human TLR8 = target: T3, human TLR8 (Homo sapiens, UniProt Q9NR97); assay: TLR8 inhibition reporter assay (HEK-Blue SEAP, R848 stimulation); assay type: cell-based; conditions: HEK-Blue cells overexpressing human TLR8, R848 15.9 μM
T3 sequence (Q9NR97 27-1041): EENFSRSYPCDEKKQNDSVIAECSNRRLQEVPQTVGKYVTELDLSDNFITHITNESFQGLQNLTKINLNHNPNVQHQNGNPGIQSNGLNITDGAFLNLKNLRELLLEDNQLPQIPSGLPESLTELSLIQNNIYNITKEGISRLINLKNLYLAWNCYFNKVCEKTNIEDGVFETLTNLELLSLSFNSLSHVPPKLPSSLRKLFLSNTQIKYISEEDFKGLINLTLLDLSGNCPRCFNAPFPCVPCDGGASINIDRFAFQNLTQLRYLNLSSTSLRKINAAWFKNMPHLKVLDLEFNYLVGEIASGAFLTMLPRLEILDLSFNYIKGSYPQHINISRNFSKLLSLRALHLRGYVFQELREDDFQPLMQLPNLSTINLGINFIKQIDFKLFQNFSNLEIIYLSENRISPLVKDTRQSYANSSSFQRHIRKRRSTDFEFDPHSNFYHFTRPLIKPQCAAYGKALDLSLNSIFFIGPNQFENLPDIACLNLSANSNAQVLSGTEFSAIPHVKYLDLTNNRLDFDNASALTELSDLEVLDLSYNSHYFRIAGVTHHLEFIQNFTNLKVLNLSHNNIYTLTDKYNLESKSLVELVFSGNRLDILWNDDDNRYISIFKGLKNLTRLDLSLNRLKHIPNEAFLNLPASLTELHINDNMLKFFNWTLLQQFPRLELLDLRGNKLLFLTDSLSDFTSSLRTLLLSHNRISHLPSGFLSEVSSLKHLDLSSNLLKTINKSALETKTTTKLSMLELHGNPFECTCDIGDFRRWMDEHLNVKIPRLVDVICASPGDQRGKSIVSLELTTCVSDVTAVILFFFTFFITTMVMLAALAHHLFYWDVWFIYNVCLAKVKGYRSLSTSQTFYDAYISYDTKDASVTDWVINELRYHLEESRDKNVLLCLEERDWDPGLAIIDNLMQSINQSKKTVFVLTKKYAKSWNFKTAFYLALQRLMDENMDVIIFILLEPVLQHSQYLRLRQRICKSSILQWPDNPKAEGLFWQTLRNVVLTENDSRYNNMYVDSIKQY
Description: as §1, §2

COc1cc(-c2[nH]c3sc(C4CCC(NC5COC5)CC4)nc3c2C(C)C)cn2ncnc12 (single isomer, unassigned) [Example 65, N-(4-(6-isopropyl-5-(8-methoxy-[1,2,4]triazolo[1,5-a]pyridin-6-yl)-4H-pyrrolo[3,2-d]thiazol-2-yl)cyclohexyl)oxetan-3-amine]
% inhibition of IFN-alpha (TLR7; oral dose 0.001 mg/kg): 50%
% inhibition of IL6 (TLR7; oral dose 0.001 mg/kg): 21%
% inhibition of IFN-alpha (TLR7; oral dose 0.005 mg/kg): 63%
% inhibition of IL6 (TLR7; oral dose 0.005 mg/kg): 42%
% inhibition of IFN-alpha (TLR7; oral dose 0.025 mg/kg): 97%
% inhibition of IL6 (TLR7; oral dose 0.025 mg/kg): 78%
% inhibition of IFN-alpha (TLR7; oral dose 0.050 mg/kg): 99%
% inhibition of IL6 (TLR7; oral dose 0.050 mg/kg): 94%

COc1cc(-c2c(C(C)C)c3nc(C4CCN(CC(F)(F)F)CC4)sc3n2CC(F)(F)F)cn2ncnc12 [Example 9, 6-isopropyl-5-(8-methoxy-[1,2,4]triazolo[1,5-a]pyridin-6-yl)-4-(2,2,2-trifluoroethyl)-2-(1-(2,2,2-trifluoroethyl)piperidin-4-yl)-4H-pyrrolo[3,2-d]thiazole]
pIC50 (human TLR7): < 5.51
pIC50 (human TLR8): < 5.51

Cc1cc(-c2[nH]c3sc(N4CCN(C5CCC5)C[C@H]4C)nc3c2C(C)C)cn2ncnc12 [Example 362, (R)-2-(4-cyclobutyl-2-methylpiperazin-1-yl)-6-isopropyl-5-(8-methyl-[1,2,4]triazolo[1,5-a]pyridin-6-yl)-4H-pyrrolo[3,2-d]thiazole]
pIC50 (human TLR7): < 5.51
pIC50 (human TLR8): < 5.51
